From patent US20250116657A1, “HIGH-THROUGHPUT ASSAY FOR CELL MIGRATION, CHEMOTAXIS, AND FUNCTION” (GlaxoSmithKline Intellectual Property Development Limited, priority 2022, published 2025)

Tests used:
Assay type in all cases: cell-based
[1] = tested on: HT29-GFP colorectal cancer cells; assay: HT29-GFP colorectal cancer cell killing within ECM-filled 2-lane Mimetas ORGANOPLATE (GFP cell debris image analysis); details: 10 μM, 5 days, 7-day old single cell colonies, 750 cells
Experimental: Single cells were seen to be uniformly dispensed across the microfluidic lanes and grew into single cell colonies over time.
2-lane Mimetas ORGANOPLATE® wells harboring 7-day old single cell colonies with either 500 cells or 750 cells were treated with 0 or 10 μM Bortezomib (sold under the brand name Velcade in the United States; CAS 179324-69-7) to observe cell killing within the channel over 5 days.

activated CD3+ T-cells = assay: Activated CD3+ T-cell chemotaxis through end-to-end collagen-matrigel ECM plug in 2-lane Mimetas ORGANOPLATE; details: for lowest concentration with robust chemotaxis response (migration length) compared to blank media control / lowest concentration with significantly higher total number of responding activated T-cells over blank media controls: 10,000 cells, 96 hours; for lowest concentration with robust chemotaxis response (migration length) compared to blank media control: chemokine refreshed at 48 hours; for lowest concentration with significantly higher total number of responding activated T-cells over blank media controls: one-way ANOVA
Experimental: 50 μl of 37° C. warmed 1×PBS were added to wells in columns 3, 7, 11, 15, 19 and 23 observation windows of Mimetas 2-lane ORGANOPLATE® and stored at 4° C. 5 μl of ice-cold 2 mg/ml collagen mixed with 10% (v/v) of low endotoxin matrigel GFR were added to wells in columns 4, 8, 12, 16, 20 and 24 of chilled Mimetas 2-lane ORGANOPLATE® to potentially create aligned collagen fibers within the microfluidic channels. After the ECM filled all the microfluidic channels, 1 μl of ice-cold ECM was quickly added to wells in columns 1, 2, 5, 6, 9, 10, 13, 14, 17, 18, 21, and 22 to allow for contact to be established between the ECM footprints. 4.5 ml of 37° C. warmed ultrapure water was added to both the ends of sterile MicroClime Environmental Lid and placed atop the Mimetas ORGANOPLATE®. The assembly was placed in a humidified 37° C. cell culture incubator for 45 minutes to ensure complete gelation of all the wells throughout the plate and used for the experiment.
After the gelation, 50 μl of blank media was added to the wells of columns 1, 5, 9, 13, 17 and 21 followed by 50 μl of the desired chemokine at different concentrations in wells of columns 4, 8, 12, 16, 20 and 24. 1:1000 (v/v) NUCLIGHT® Rapid Red dye stained and washed activated CD3+ T-cells were quickly added towards the mouth of the channel allowing increased deposition of cells closer to the mouth of the channel in the wells of column 2, 6, 10, 14, 18 and 22 in RPMI media with 0.5% FBS. CD3+ T-cells were activated for 48 hours prior the experiment with 1:500 (v/v) TRANSACT® beads with 20 IU/mL IL2 in RPMI media with 10% FBS. The ORGANOPLATE® was left undisturbed for 3-5 minutes to allow T-cell settling followed by placing them in humidified 37° C. incubator for the duration of the experiment. Chemokines were replaced as needed after 48 and 96 hours along with the 37° C. warmed ultrapure water within the sterile MicroClime Environmental Lid.
Wells from columns 2, 3, 4, 6, 7, 8, 10, 11, 12, 14, 15, 16, 18, 19, 20, 22, 23 and 24 were imaged in the far red and bright field channels at 4× magnification on days 0, 1, 2, 3, 4, 5 and 6 using an INCELL™ 6500 confocal microscope to identify the cells within the migrating channel. Z-stack of six images at different focal planes 50 μm apart spanning the thickness of the microfluidic channel were captured followed by maximum projection to create a singular image of the migratory channel. Images were then transferred to COLUMBUS™ image segmentation software to extract the X-Y location of the migratory CD3+ T-cells within the microfluidic channel. Area cut-offs and positive signal over background were used to accurately identify the fluorescent T-cells over the background.
The X-Y data of the CD3+ T-cells was transferred to SPOTFIRE™ analytics platform for image representation. The X axis location of the migratory T-cells across 4 different replicate wells were pooled and represented as a horizontal violin plot using the GRAPHPAD™ prism. Kruskal-Wallis test for statistical significance was used to understand the significance of a chemokine concentration in driving increased migration distance into the end-to-end solid ECM channel over blank media controls. Replicates were individually compared amongst each other to ensure significance between the sample and replicate and the lowest significance difference was represented in the graph. […]

naive CD3+ T-cells = assay: Naive CD3+ T-cell chemotaxis through ECM plug in 2-lane Mimetas ORGANOPLATE; details: 2.5 μM CXCR3 agonist
Experimental: Nuclight rapid red dye stained naive CD3+ T-cells were added closer to the mouth of the channel at the one end (well/frame 2 (102) of extracellular matrix (2 mg/mL collagen+10% (v/v) Matrigel GFR) filled within 2-lane Mimetas ORGANOPLATE®) to evaluate chemotaxis in response to the small molecule agonist applied to other end of the extracellular matrix plug (well/frame 4 (104)). Well/frame 1 (101) was filled with blank media. […] In order to enhance the adhesion of naïve T-cells to the extracellular matrix, 1 μg/mL of ICAM1 (Intercellular Adhesion Molecule 1, also known as Cluster of Differentiation 54 (CD54)) was also spiked into well/frame 2 of the assay system along with the T-cells. Chemotaxis potential was measured via confocal microscopy, identifying the number of naïve T-cells under migration in response to the chemokine gradient generated within the extracellular matrix.

| Molecule | lowest concentration with robust chemotaxis response (migration length) compared to blank media control (activated CD3+ T-cells) [nM] | lowest concentration with significantly higher total number of responding activated T-cells over blank media controls (activated CD3+ T-cells) [nM] | also measured |
| --- | --- | --- | --- |
| CC(C)C[C@H](NC(=O)[C@H](Cc1ccccc1)NC(=O)c1cnccn1)B(O)O [Bortezomib] |  |  | number of GFP cell debris aggregates (cell killing) versus 0 μM [1]: statistically significant increase |
| CXCL10: recombinant chemokine, R&D Systems catalog 266-IP | 37.5 | 150 |  |
| CXCL12: recombinant chemokine, R&D Systems catalog 350-NS | 37.5 | 18.75 | chemotaxis of activated CD3+ T-cells compared to 0 nM (activated CD3+ T-cells; 300 nM, 120 hours, cells in well 2, media in well 1, chemokine in well 4, refreshed after 48 hours): significantly higher chemotaxis |
| ICAM1: Intercellular Adhesion Molecule 1, also known as Cluster of Differentiation 54 (CD54) (protein, UniProt P05362 28-532, looked up) Intercellular adhesion …: QTSVSPSKVILPRGGSVLVTCSTSCDQPKLLGIETPLPKKELLLPGNNRKVYELSNVQEDSQPMCYSNCPDGQSTAKTFLTVYWTPERVELAPLPSWQPVGKNLTLRCQVEGGAPRANLTVVLLRGEKELKREPAVGEPAEVTTTVLVRRDHHGANFSCRTELDLRPQGLELFENTSAPYQLQTFVLPATPPQLVSPRVLEVDTQGTVVCSLDGLFPVSEAQVHLALGDQRLNPTVTYGNDSFSAKASVSVTAEDEGTQRLTCAVILGNQSQETLQTVTIYSFPAPNVILTKPEVSEGTEVTVKCEAHPRAKVTLNGVPAQPLGPRAQLLLKATPEDNGRSFSCSATLEVAGQLIHKNQTRELRVLYGPRLDERDCPGNWTWPENSQQTPMCQAWGNPLPELKCLKDGTFPLPIGESVTVTRDLEGTYLCRARSTQGEVTRKVTVNVLSPRYEIVIITVVAAAVIMGTAGLSTYLYNRQRKIKKYRLQQAQKGTPMKPNTQATPP |  |  | effect of addition on number of naive T-cells responding to the chemokine gradient (naive CD3+ T-cells; 1 μg/mL in well 2, 35000 cells): did not influence; impact of inclusion on chemotaxis outcome (naive CD3+ T-cells; 1 μg/mL in well 2, higher naive T-cell numbers (100,000-150,000)): non-significant impact |
